Source: patent US4593104A, “2-halo-N-(azole-1-yl-methyl)-substituted acetanilides” (BASF Aktiengesellschaft, priority 1976, dated 1986)

Columns and labels:
Beta vulg. = assay: preemergence treatment in the greenhouse, % damage; type: in vivo, Beta vulgaris
From the text: (§1) The vessels employed were plastic flowerpots having a volume of 300 cm^3; the substrate was a sandy loam containing about 1.5% humus. The seeds of the test plants (see Table 1) were sown shallow, and separated according to species. In the case of Cyperus esculentus, pregerminated tubers were planted. In the preemergence treatment, the active ingredients were then immediately applied to the surface of the soil. They were suspended or emulsified in water as the vehicle, and sprayed through atomizing nozzles. After the agents had been applied, the vessels were lightly sprinkler-irrigated to set germination and growth going, and to activate the chemical agents. The vessels were then covered with transparent plastic hoods until the plants had taken root. This cover ensured uniform germination of the test plants (to the extent that this was not impaired by the chemicals), and prevented readily volatile substances from evaporating.
(§2) For postemergence treatment, the plants were first grown to a height of from 3 to 10 cm, depending on their habit, before treated. Hoods were not placed on the pots. The experiments were set up in the greenhouse, hotter areas (25° to 40° C.) being preferred for heat-loving species, and 15° to 30° C. for plants from moderate climates. The experiments were carried out for from 4 to 6 weeks. During this period the plants were tended and their reaction to the various treatments was assessed. The following tables contain the substances investigated, the application rates in kg/ha of active ingredient, and the test plant species. Assessments were made on a 0 to 100 scale, 0 denoting no damage or normal emergence, and 100 denoting no emergence or complete destruction of at least the visible plant parts.

Glyc. max = assay: preemergence treatment in the greenhouse, % damage; type: in vivo, Glycine max
From the text: as §1, §2

Matric. spp. = assay: preemergence treatment in the greenhouse, % damage; type: in vivo
From the text: as §1, §2

Bromus spp. = assay: preemergence treatment in the greenhouse, % damage; type: in vivo
From the text: as §1, §2

Alopec. myosur. [1] = assay: preemergence treatment in the greenhouse, % damage; type: in vivo
From the text: as §1, §2

Cyperus ferax = assay: preemergence treatment in the greenhouse, % damage; type: in vivo
From the text: as §1, §2

Setaria spp. [2] = assay: preemergence treatment in the greenhouse, % damage; type: in vivo
From the text: as §1, §2

Echin. c.g. = assay: preemergence treatment in the greenhouse, % damage; type: in vivo
From the text: as §1, §2

Zea mays = assay: preemergence treatment in the greenhouse, % damage; type: in vivo
From the text: as §1, §2

Solanum nigrum = assay: preemergence treatment in the greenhouse, % damage; type: in vivo
From the text: as §1, §2

Brassica napus [3] = assay: preemergence treatment in the greenhouse, % damage; type: in vivo
From the text: as §1, §2

Cyper. escul. = assay: postemergence application in the greenhouse, % damage; type: in vivo, Cyperus esculentus
From the text: as §1, §2

Anth./Matric. = assay: preemergence application in the open, % damage; type: in vivo
Procedure: (§3) The experiments were carried out on small plots. The soil was a sandy loam having a pH of from 5 to 6 and containing from 1 to 1.5% humus. The treatment was preemergence, the active ingredients being applied immediately or at the latest 3 days after sowing. The crop plants were sown in rows. The weed flora was made up of the most widely varying species and was natural; the weed flora depended on the time of the year and in part on the crop (e.g., spring-germinating, summer-germinating). The substances were emulsified or suspended in water as the vehicle, and applied by means of a motor-driven plot spray mounted on a hitch. When no rain fell, the plots were watered to ensure germination and growth of the crop plants and weeds. All the experiments were run for several weeks. Over this period, assessments were made at certain intervals on the 0 to 100 scale.

Stellaria media = assay: preemergence application in the open, % damage; type: in vivo
Procedure: as §3

Alopec. myosur. [4] = assay: preemergence application in the open, % damage; type: in vivo
Procedure: as §3

Lamium spp. = assay: preemergence application in the open, % damage; type: in vivo
Procedure: as §3

Brassica napus [5] = assay: preemergence application in the open, % damage; type: in vivo
Procedure: as §3

Amar. retro. = assay: preemergence treatment in the greenhouse, % damage; type: in vivo
From the text: as §1, §2

Sorgh. halep. = assay: preemergence treatment in the greenhouse, % damage; type: in vivo
From the text: as §1, §2

Cyp. diff. = assay: preemergence treatment in the greenhouse, % damage; type: in vivo
From the text: as §1, §2

Poa annua = assay: preemergence treatment in the greenhouse, % damage; type: in vivo
From the text: as §1, §2

Avena fat. = assay: postemergence application in the greenhouse, % damage; type: in vivo
From the text: as §1, §2

Setaria spp. [6] = assay: as above; type: in vivo
From the text: as §1, §2

Stell. med. = assay: as above; type: in vivo
From the text: as §1, §2

Euph. gen. = assay: preemergence treatment in the greenhouse, % damage; type: in vivo; details: 0.25 kg/ha
From the text: as §1, §2

Chrys. seget. = assay: preemergence treatment in the greenhouse, % damage; type: in vivo; details: 0.25 kg/ha
From the text: as §1, §2

CCc1cccc(C)c1N(Cn1cc(OC)cn1)C(=O)CCl
% damage (Beta vulg.; 0.5 kg/ha): 5% | % damage (Beta vulg.; 1.0 kg/ha): 15% | % damage (Glyc. max; 0.5 kg/ha): 0% | % damage (Glyc. max; 1.0 kg/ha): 0% | % damage (Matric. spp.; 0.5 kg/ha): 98% | % damage (Matric. spp.; 1.0 kg/ha): 98% | % damage (Bromus spp.; 0.5 kg/ha): 90% | % damage (Bromus spp.; 1.0 kg/ha): 98% | % damage (Alopec. myosur. [1]; 0.5 kg/ha): 100% | % damage (Alopec. myosur. [1]; 1.0 kg/ha): 100% | % damage (Cyperus ferax; 0.5 kg/ha): 100% | % damage (Cyperus ferax; 1.0 kg/ha): 100% | % damage (Setaria spp. [2]; 0.5 kg/ha): 100% | % damage (Setaria spp. [2]; 1.0 kg/ha): 100% | % damage (Echin. c.g.; 0.5 kg/ha): 100% | % damage (Echin. c.g.; 1.0 kg/ha): 100%

COc1cnn(CN(C(=O)CCl)c2c(C)cccc2C)c1
% damage (Glyc. max; 0.5 kg/ha): 0% | % damage (Glyc. max; 1.0 kg/ha): 0% | % damage (Matric. spp.; 0.5 kg/ha): 95% | % damage (Matric. spp.; 1.0 kg/ha): 95% | % damage (Bromus spp.; 0.5 kg/ha): 100% | % damage (Bromus spp.; 1.0 kg/ha): 100% | % damage (Alopec. myosur. [1]; 0.5 kg/ha): 100% | % damage (Alopec. myosur. [1]; 1.0 kg/ha): 100% | % damage (Cyperus ferax; 0.5 kg/ha): 100% | % damage (Cyperus ferax; 1.0 kg/ha): 100% | % damage (Setaria spp. [2]; 0.5 kg/ha): 100% | % damage (Setaria spp. [2]; 1.0 kg/ha): 100% | % damage (Echin. c.g.; 0.5 kg/ha): 100% | % damage (Echin. c.g.; 1.0 kg/ha): 100%

Cc1cc(C)n(CN(C(=O)CCl)c2ccccc2C)n1
% damage (Zea mays; 1.0 kg/ha): 0% | % damage (Matric. spp.; 1.0 kg/ha): 90% | % damage (Bromus spp.; 1.0 kg/ha): 95% | % damage (Solanum nigrum; 1.0 kg/ha): 100% | % damage (Alopec. myosur. [1]; 1.0 kg/ha): 85% | % damage (Setaria spp. [2]; 1.0 kg/ha): 60% | % damage (Brassica napus [3]; 1.0 kg/ha): 10% | % damage (Echin. c.g.; 1.0 kg/ha): 85%

Cc1cc(C)n(CN(C(=O)CCl)c2c(C)cccc2C)n1 [Compound 38]
% damage (Cyper. escul.; 1.0 kg/ha): 80% | % damage (Cyper. escul.; 2.0 kg/ha): 80% | % damage (Anth./Matric.; 2.0 kg/ha): 100% | % damage (Stellaria media; 2.0 kg/ha): 88% | % damage (Alopec. myosur. [4]; 2.0 kg/ha): 80% | % damage (Lamium spp.; 2.0 kg/ha): 100% | % damage (Brassica napus [5]; 2.0 kg/ha): 0% | % damage (Amar. retro.; 0.125 kg/ha): 75% | % damage (Amar. retro.; 0.25 kg/ha): 100% | % damage (Sorgh. halep.; 0.125 kg/ha): 70% | % damage (Sorgh. halep.; 0.25 kg/ha): 95% | % damage (Cyp. diff.; 0.125 kg/ha): 100% | % damage (Cyp. diff.; 0.25 kg/ha): 100% | % damage (Bromus spp.; 0.125 kg/ha): 95% | % damage (Bromus spp.; 0.25 kg/ha): 100% | % damage (Poa annua; 0.125 kg/ha): 100% | % damage (Poa annua; 0.25 kg/ha): 100% | % damage (Avena fat.; 1.0 kg/ha): 70% | % damage (Avena fat.; 2.0 kg/ha): 90% | % damage (Setaria spp. [6]; 1.0 kg/ha): 85% | % damage (Setaria spp. [6]; 2.0 kg/ha): 85% | % damage (Stell. med.; 1.0 kg/ha): 100% | % damage (Stell. med.; 2.0 kg/ha): 100%

CCc1cccc(C)c1N(Cn1cccn1)C(=O)CCl [Compound 7]
% damage (Anth./Matric.; 0.5 kg/ha): 100% | % damage (Stellaria media; 0.5 kg/ha): 80% | % damage (Stellaria media; 1.0 kg/ha): 95% | % damage (Alopec. myosur. [4]; 0.5 kg/ha): 70% | % damage (Alopec. myosur. [4]; 1.0 kg/ha): 85% | % damage (Lamium spp.; 0.5 kg/ha): 95% | % damage (Lamium spp.; 1.0 kg/ha): 100% | % damage (Brassica napus [5]; 0.5 kg/ha): 5% | % damage (Brassica napus [5]; 1.0 kg/ha): 10% | % damage (Amar. retro.; 0.25 kg/ha): 88% | % damage (Euph. gen.): 80% | % damage (Sorgh. halep.; 0.25 kg/ha): 75% | % damage (Bromus spp.; 0.25 kg/ha): 95% | % damage (Solanum nigrum; 0.25 kg/ha): 100% | % damage (Poa annua; 0.25 kg/ha): 100% | % damage (Chrys. seget.): 100%

Cc1ccccc1N(Cn1nc(C)c(C)c1C)C(=O)CCl
% damage (Zea mays; 2.0 kg/ha): 10% | % damage (Matric. spp.; 2.0 kg/ha): 95% | % damage (Bromus spp.; 2.0 kg/ha): 80% | % damage (Solanum nigrum; 2.0 kg/ha): 100% | % damage (Alopec. myosur. [1]; 2.0 kg/ha): 50% | % damage (Setaria spp. [2]; 2.0 kg/ha): 100% | % damage (Brassica napus [3]; 2.0 kg/ha): 30% | % damage (Echin. c.g.; 2.0 kg/ha): 55%

Cc1ccccc1N(Cn1nccc1C)C(=O)CCl
% damage (Zea mays; 2.0 kg/ha): 0% | % damage (Matric. spp.; 2.0 kg/ha): 90% | % damage (Bromus spp.; 2.0 kg/ha): 90% | % damage (Solanum nigrum; 2.0 kg/ha): 100% | % damage (Alopec. myosur. [1]; 2.0 kg/ha): 90% | % damage (Setaria spp. [2]; 2.0 kg/ha): 100% | % damage (Brassica napus [3]; 2.0 kg/ha): 10% | % damage (Echin. c.g.; 2.0 kg/ha): 95%
